Laboratory results from patent US10106558B2, “Azolobenzazine compounds, compositions comprising these compounds and their use for controlling invertebrate pests” (BASF SE, priority 2015, dated 2018).

How the values were obtained:
Assay type in all cases: in vivo
[1] = test system: tobacco budworm (Heliothis virescens); assay: Action on tobacco budworm, eggs on insect diet in 96-well microtiter plates; settings: 120 h, egg and larval mortality visually assessed after 5 days, read-out: mortality in comparison with untreated controls
Summary of the method: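 Compounds in 25% DMSO/water sprayed (10 μl) onto insect diet holding 15–25 H. virescens eggs, two replicates at several concentrations. Held 5 days at about 28±1 °C, 80±5% RH. Egg and larval mortality scored visually.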

[2] = test system: Diamond Back Moth (Plutella xylostella); assay: Action on diamond back moth, dipped cabbage leaves; settings: 3rd instar larvae, 72 hours after treatment, read-out: mortality in comparison with untreated controls
Summary of the method: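 Cabbage leaves dipped in compound in 1:1 water:acetone with 0.01% (vol/vol) surfactant, air-dried, placed on moist filter paper and infested with ten 3rd-instar larvae. Mortality scored 72 hours after treatment; feeding damage rated on a 0-100% scale.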

[3] = test system: yellow fever mosquito (Aedes aegypti); assay: whole plant or invertebrate; settings: 48 h, larval mortality visually assessed after 2 days, read-out: mortality in comparison with untreated controls
Summary of the method: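 Freshly hatched larvae (5-15 per well) held in 200 μl tap water; compounds formulated in 25% DMSO/water and 2.5 μl sprayed at several concentrations, two replicates. Plates kept 2 days at 28 °C, 80% RH, then larval mortality scored visually.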

[4] = test system: Southern Armyworm (Spodoptera eridania), 2nd instar larvae; assay: Action on southern armyworm 2nd instar larvae, sprayed lima bean plants; settings: 96 h, 4 days after treatment, read-out: mortality in comparison with untreated controls
Summary of the method: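 Lima bean plants (Sieva, 1st true leaf) sprayed electrostatically with compound in 50% acetone/water plus 0.01% nonionic surfactant, dried, then infested with 10–11 larvae in bags. Held at about 25 °C, 20–40% RH; mortality and reduced feeding scored 4 days after treatment versus untreated plants.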

[5] = test system: Orchid Thrips (Dichromothrips corbetti); assay: Action on orchid thrips, floral-immersion technique; settings: adult thrips, 72 hours after treatment, read-out: mortality in comparison with untreated controls
Summary of the method: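 Lab-colony adult thrips, about 20 per arena, were exposed to whole orchid flower petals dipped in compound diluted in 1:1 acetone:water with 0.01% v/v Kinetic HV and then dried. Arenas were held under continuous light at about 28 °C. Live thrips were counted after 3 days and percent mortality recorded at 72 h post-treatment.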

[6] = test system: Silverleaf Whitefly (Bemisia argentifolii) (Adults); assay: Action on silverleaf whitefly adults, sprayed cotton plants; settings: 72 h, 3 days after treatment, read-out: mortality in comparison with untreated controls
Summary of the method: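 Compounds diluted from cyclohexanone stocks into 50% acetone/water with 0.01% nonionic surfactant and electrostatically sprayed onto cotyledon-stage cotton. Dried plants were infested with 10–12 adults (3–5 days old), held ~25 °C, 20–40% RH for 3 days; mortality scored at day 3 vs untreated plants.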

[7] = test system: boll weevil (Anthonomus grandis); assay: Action on boll weevil, eggs on insect diet in 96-well microtiter plates; settings: 120 h, 800 ppm, egg and larval mortality visually assessed after 5 days, read-out: mortality in comparison with untreated controls
Summary of the method: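 Diet in 96-well plates was infested with 5-10 A. grandis eggs and sprayed with compounds formulated in 75% water/25% DMSO, at several concentrations, in two replicates. Plates were held 5 days at about 25±1 °C and 75±5% RH. Egg and larval mortality was then scored visually.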

Cc1ccc(C(C)C)c(N2C(=O)CS/C2=N\N=C\c2ccc3c(ccc4c3ncn4-c3ccc(OC(F)(F)F)cc3)n2)c1 [Compound C-6, (2Z)-3-(2-isopropyl-5-methyl-phenyl)-2-[(E)-[3-[4-(trifluoromethoxy)phenyl]imidazo[4,5-f]quinolin-7-yl]methylenehydrazono]thiazolidin-4-one]
≥ 75%: mortality at 800 ppm [1] | mortality at 500 ppm [2] | mortality at 800 ppm [3] | mortality at 500 ppm [4] | mortality at 500 ppm [5] | mortality at 500 ppm [6] | mortality at 800 ppm [7]
